Measured values from the RepoRT retention time repository (doi:10.1016/j.chroma.2015.03.063).

Experiment: Agilent ZORBAX Eclipse Plus C18, 100 × 2.1 mm, 1.8 µm, 25 °C, 0.3 mL/min, estimated dead time 0.73 min; A: water + 0.1% acetic acid; B: methanol; gradient (min/%B) 0/5 6/20 13/35 18/50 24/65 30/90 40/90
Settings: stereoisomer not certain

| Compound | LC retention time [min] |
| --- | --- |
| O=C(O)c1cccnc1 | 3.34 |
| CCCCC=CC=CC=O | 22.7 |
| Nc1ncnc2nc[nH]c12 | 2.73 |

Further lines, results first:

| LC retention time [min] | Compound |
| --- | --- |
| 5.02 | CC(C)CC(N)C(=O)O (configuration not stated) |
| 11.6 | CC1OC(OCC2OC(Oc3c(-c4ccc(O)c(O)c4)oc4cc(O)cc(O)c4c3=O)C(O)C(O)C2O)C(O)C(O)C1O (configuration not stated) |
| 4.67 | CCC(C)C(N)C(=O)O (configuration not stated) |
| 2.54 | OCC1OC(OCC2OC(OC3(CO)OC(CO)C(O)C3O)C(O)C(O)C2O)C(O)C(O)C1O (configuration not stated) |
| 11.5 | COc1cc(C=CC(=O)O)ccc1O |
| 9.87 | COc1cc(C(=O)O)cc(OC)c1O |
| 2.12 | CC(O)C(N)C(=O)O (configuration not stated) |
| 21.6 | COc1ccc(-c2coc3cc(OC4OC(CO)C(O)C(O)C4O)ccc3c2=O)cc1 (configuration not stated) |
| 7.74 | O=C(O)c1ccc(O)c(O)c1 |
| 5.25 | Nc1ncnc2c1ncn2C1OC(CO)C(O)C1O (configuration not stated) |
| 13.9 | COC(=O)C1=COC(OC2OC(CO)C(O)C(O)C2O)C2C(CO)=CCC12 (configuration not stated) |
| 32.2 | CC(C)(O)C1CCC(C)(C2C(O)CC3(C)C4CC(OC5OC(CO)C(O)C(O)C5O)C5C(C)(C)C(OC6OCC(O)C(O)C6O)CCC56CC46CCC23C)O1 (configuration not stated) |
| 23.6 | COc1ccc(-c2coc3cc(O)ccc3c2=O)cc1O |
| 4.2 | O=c1cc[nH]c(=O)[nH]1 |
| 2.05 | NC(N)=NCCCC(N)C(=O)O (configuration not stated) |
| 2.11 | NC(=O)CC(N)C(=O)O (configuration not stated) |
| 8.99 | O=C(C=Cc1ccc(O)c(O)c1)OC1CC(O)(C(=O)O)CC(O)C1O (configuration not stated) |

Experiment: RP, Thermo Scientific Accucore C18, 150 × 2.1 mm, 2.6 µm, 24 °C, 0.28 mL/min, estimated dead time 0.83 min; A: 90% water + 10% acetonitrile + 10 mM ammonium acetate; B: 20% water + 80% methanol + 10 mM ammonium acetate; gradient (min/%B) 0/0 2.5/0 7.5/30 12.5/30 15/40 20/100 27.5/100
Settings: stereoisomer not certain

| Compound | LC retention time [min] |
| --- | --- |
| CN(C)C(=O)Oc1cc(OC(=O)N(C)C)cc(C(O)CNC(C)(C)C)c1 (configuration not stated) | 8.28 |
| COc1ccc2c(c1)C13CCCCC1C(C2)N(C)CC3 (configuration not stated) | 11 |
| CC(C(O)c1ccccc1)N(C)C (configuration not stated) | 3.27 |
| CC1NCCOC1c1ccccc1 (configuration not stated) | 4.89 |
| CC(Cc1ccccc1)N(C)Cc1ccccc1 (configuration not stated) | 17.8 |
| CCCCCc1cc(O)c2c(c1)OC(C)(C)C1CCC(C(=O)O)=CC21 (configuration not stated) | 18.9 |
| CNC(C)C(=O)c1ccc(C)cc1 (configuration not stated) | 6.27 |
| C#CC1(O)CCC2C3CCC4=CC(=O)CCC4=C3C=CC21CC (configuration not stated) | 17.5 |
| CCC(=C(c1ccccc1)c1ccc(OCCN(C)C)cc1)c1ccccc1 | 21.2 |
| CC(C)NCC(O)COc1ccc(COCCOC(C)C)cc1 (configuration not stated) | 8.86 |
| CC(CN1CCOCC1)C(C(=O)N1CCCC1)(c1ccccc1)c1ccccc1 (configuration not stated) | 19 |
| CCC(=O)C(CC(C)N(C)C)(c1ccccc1)c1ccccc1 (configuration not stated) | 16.5 |
| CNC(C)Cc1ccccc1OC (configuration not stated) | 6.54 |
| COc1cccc(C2(O)CCCCC2CN(C)C)c1 (configuration not stated) | 7.44 |
| CCCCCC(C)N (configuration not stated) | 6.13 |
| CCCC(C(=O)c1ccc2c(c1)OCO2)N1CCCC1 (configuration not stated) | 8.97 |
| Cc1ccccc1CC(C)N (configuration not stated) | 6.42 |
| CCNC1C2CCC(C2)C1c1ccccc1 (configuration not stated) | 9.1 |
| NC(=O)N1c2ccccc2C=Cc2ccccc21 | 10.7 |
| COC12CCC3(CC1C(C)(O)C(C)(C)C)C1Cc4ccc(O)c5c4C3(CCN1CC1CC1)C2O5 (configuration not stated) | 22.2 |
| CNC(C)C(=O)c1ccccc1 (configuration not stated) | 2.99 |
| CNC(C)CC1CCCCC1 (configuration not stated) | 8.35 |

Second part, the compound after the results:

| LC retention time [min] | Compound |
| --- | --- |
| 6.44 | COc1cc(Cc2cnc(N)nc2N)cc(OC)c1OC |
| 9.53 | CC(=O)Oc1c(C)cc(OCC(O)CNC(C)C)c(C)c1C (configuration not stated) |
| 15.7 | CC(=O)OCC(=O)C12N=C(C)OC1CC1C3CCC4=CC(=O)C=CC4(C)C3C(O)CC12C (configuration not stated) |
| 8.05 | CC(C(=O)O)c1cccc(C(=O)c2ccccc2)c1 (configuration not stated) |
| 9.34 | CC12CCC(=O)C=C1CCC1C2C(=O)CC2(C)C1CCC2(O)C(=O)CO (configuration not stated) |
| 9.01 | CC(=O)CC(c1ccccc1)c1c(O)c2ccccc2oc1=O (configuration not stated) |
| 18.6 | C#CC1(O)CCC2C3C(C)CC4=C(CCC(=O)C4)C3CCC21C (configuration not stated) |
| 9.86 | CC(C)NCC(O)COc1cccc2ccccc12 (configuration not stated) |
| 8.15 | CCN(CC)C(=O)Nc1ccc(OCC(O)CNC(C)(C)C)c(C(C)=O)c1 (configuration not stated) |
| 11 | CC1CC2C(C(O)CC3(C)C2CCC3(O)C(=O)CO)C2(C)C=CC(=O)C=C12 (configuration not stated) |
| 8.74 | CCCN(CCC)S(=O)(=O)c1ccc(C(=O)O)cc1 |
| 13 | Cc1cccc(Nc2ccccc2C(=O)O)c1C |
| 9 | CC(CCc1ccccc1)NCC(O)c1ccc(O)c(C(N)=O)c1 (configuration not stated) |
| 5.15 | CC(C)NCC(O)COc1cccc2[nH]ccc12 (configuration not stated) |
| 9.25 | CCCCNc1cc(C(=O)O)cc(S(N)(=O)=O)c1Oc1ccccc1 |
